Test results as given in publication PMC5684318, “Heterogeneity in the Drosophila gustatory receptor complexes that detect aversive compounds” (Nature Communications, 2017).

molecular target: T1, GR22e/GR32a/GR66a (Drosophila melanogaster, UniProt P58953+Q9VKJ7+Q9VSH2); test: whole-cell patch clamp of S2 cells; tip recording of L-type sensilla misexpressing the receptors; type: cell-based; conditions: agonist; S2 cells pH 7.4, room temperature, voltage ramp -80 to +80 mV; sensilla 1 mM
T1 construct: full-length receptors co-expressed in Drosophila S2 cells (with EGFP) and in sweet GRNs via UAS/Gr64f-GAL4
T1 sequence (P58953 1-389): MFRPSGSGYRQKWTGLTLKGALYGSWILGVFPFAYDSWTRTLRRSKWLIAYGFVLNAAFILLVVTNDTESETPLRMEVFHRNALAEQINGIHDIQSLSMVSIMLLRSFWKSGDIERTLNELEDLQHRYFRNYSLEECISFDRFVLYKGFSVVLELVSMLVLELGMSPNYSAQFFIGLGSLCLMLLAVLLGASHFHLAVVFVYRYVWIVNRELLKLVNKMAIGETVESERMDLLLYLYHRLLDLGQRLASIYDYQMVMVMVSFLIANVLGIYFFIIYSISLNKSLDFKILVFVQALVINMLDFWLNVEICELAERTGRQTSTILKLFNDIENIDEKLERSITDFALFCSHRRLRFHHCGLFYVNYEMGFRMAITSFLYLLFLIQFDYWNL
T1 sequence (Q9VKJ7 1-461): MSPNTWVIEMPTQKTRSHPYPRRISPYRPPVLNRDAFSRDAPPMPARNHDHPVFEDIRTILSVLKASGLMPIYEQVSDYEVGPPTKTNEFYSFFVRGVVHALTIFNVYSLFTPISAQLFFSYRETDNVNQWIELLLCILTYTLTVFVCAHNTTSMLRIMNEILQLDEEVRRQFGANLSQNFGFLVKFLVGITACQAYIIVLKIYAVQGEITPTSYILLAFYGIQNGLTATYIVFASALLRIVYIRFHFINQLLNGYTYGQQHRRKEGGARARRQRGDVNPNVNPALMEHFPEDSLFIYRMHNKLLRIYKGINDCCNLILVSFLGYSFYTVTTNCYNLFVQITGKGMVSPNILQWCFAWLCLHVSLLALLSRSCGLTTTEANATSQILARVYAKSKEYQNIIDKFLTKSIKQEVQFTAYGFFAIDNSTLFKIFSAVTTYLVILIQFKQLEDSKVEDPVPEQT
T1 sequence (Q9VSH2 1-527): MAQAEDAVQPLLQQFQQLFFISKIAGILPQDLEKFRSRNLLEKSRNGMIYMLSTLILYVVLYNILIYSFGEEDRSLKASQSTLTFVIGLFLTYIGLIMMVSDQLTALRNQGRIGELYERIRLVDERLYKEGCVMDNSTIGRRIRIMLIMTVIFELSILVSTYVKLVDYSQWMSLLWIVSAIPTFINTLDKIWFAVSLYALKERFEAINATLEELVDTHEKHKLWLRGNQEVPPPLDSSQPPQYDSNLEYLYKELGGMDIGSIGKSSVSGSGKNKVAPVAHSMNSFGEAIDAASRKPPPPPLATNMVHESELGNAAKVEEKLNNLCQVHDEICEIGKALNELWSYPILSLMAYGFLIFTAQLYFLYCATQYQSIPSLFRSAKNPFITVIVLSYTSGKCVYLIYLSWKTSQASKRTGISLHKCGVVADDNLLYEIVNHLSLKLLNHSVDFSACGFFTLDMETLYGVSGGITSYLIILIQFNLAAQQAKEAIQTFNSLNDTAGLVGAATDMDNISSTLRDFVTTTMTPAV

| Compound | whole-cell patch clamp of S2 cells; tip recording of L-type sensilla misexpressi |
| --- | --- |
| COc1ccc2cc3[n+](cc2c1OC)CCc1cc2c(cc1-3)OCO2 [BER, berberine] | both Gr combinations confer sensitivity to LOB, BER, and DEN on S2 cells |
| CC[N+](CC)(CC(=O)Nc1c(C)cccc1C)Cc1ccccc1 [DEN, denatonium] | both Gr combinations confer sensitivity to LOB, BER, and DEN on S2 cells |
| CN1[C@@H](CC(=O)c2ccccc2)CCC[C@H]1C[C@H](O)c1ccccc1 [LOB, lobeline] | both Gr combinations confer sensitivity to LOB, BER, and DEN on S2 cells |
| O=C1C[C@@H]2OCC=C3CN4CC[C@]56c7ccccc7N1[C@H]5[C@H]2[C@H]3C[C@H]46 [STR, strychnine] | GR22e/GR32a/GR66a-expressing S2 cells also respond to STR |
